# Source: patent publication US10626368B2, “Method for inducing cerebral cortex neurons” (KYOTO UNIVERSITY, priority 2015, dated 2020)
# Columns and labels:
# ES cells (Kh-1) = experiment: Adhesion of spheres to OFL coat dish; assay type: cell-based, human; conditions: 10 nM C59, ES cells (Kh-1)
# From the text: Human ES cells (KhES-1) were obtained from Institute for Frontier Medical Sciences, Kyoto University (Suemori H, et al. Biochem Biophys Res Commun. 345: 926-32, 2006). The human iPS cells 404C2 are cells obtained by introducing Oct3/4, Sox2, Klf4, L-MYC, LIN28 and p53shRNA into human fibroblasts, using an episomal vector, and these cells were obtained from Professor Yamanaka et al. in Kyoto University (Okita, et al, Nat Methods. 8: 409-412, 2011). The human iPS cells 836B1 are cells obtained by introducing Oct3/4, Sox2, Klf4, L-MYC, LIN28, GLIS1 and p53shRNA into human fibroblasts, using an episomal vector, and these cells were obtained from Professor Yamanaka et al. in Kyoto University. The ES cells and the iPS cells were cultured on SNL cells (Takahashi K, et al, Cell. 131: 861-872, 2007). The obtained cell mass was transferred on a dish (24-well plate (BD)) coated with 50 μg/ml ornithine (Sigma), 5 μg/ml laminin (Sigma) and 5 μg/ml fibronectin (BD Bioscience Pharmingen), and the culture was continued in Neurobasal (Invitrogen), to which B27 (Invitrogen), 2 mM L-Gln, and 10 units/ml penicillin and streptomycin (Invitrogen) had been added. […] Furthermore, the expression levels of the Foxg1, Lhx2, Emx2 and CoupTF1 genes in the obtained spheres were measured according to a qPCR method (FIG. 4B). […]
# iPS cells (836B1) = experiment: Immunostaining for CoupTF1 and Ctip2 on day 46, suspension culture with various WNT inhibitors (Example 4); assay type: cell-based, human; conditions: 50 nM C59, 100 nM LGK-974, 1 μM ICG-001, day 46; C59 and LGK-974 compared with each other
# Protocol: On the day before induction of differentiation, in order to separate the iPS cells (836B1), which had been cultured in a culture medium to which 10 μM Y-27632 had been added, from the SNL feeder cells, the SNL cells were removed with CTK and the remaining cells were then dissociated using Accumax. The cells were transferred on a 96-well plate (Lipidure-coat 96-well plate) in an amount of 9×10^3 cells per well. Thereafter, the cells were subjected to a suspension culture in DMEM/F12 comprising 50 μM Y-27632, 10 μM SB43152, 10 ng/ml bFGF, various types of Wnt inhibitors (50 nM C59, 100 nM LGK-974, or 1 μM ICG-001 (Cellagen Technology)), 100 nM LDN193189, 10% KSR, 0.1 mM MEM non-essential amino acid, 0.1 mM 2-mercaptoethanol, and 2 mM L-Gln (initiation of differentiation induction, day 0). […] Three days later, the medium was exchanged with DMEM/F12 comprising various types of WNT inhibitors (C59, LGK-974, or ICG-001), 100 nM LDN193189, 10% KSR, 0.1 mM MEM non-essential amino acid, 0.1 mM 2-mercaptoethanol, and 2 mM L-Gln (day 6). Thereafter, the medium was exchanged with a fresh one of the same type every 3 days, and the culture was carried out for 18 days after the initiation of differentiation induction (day 18).
# A half of the medium on day 18 was removed by aspiration, and thereafter, Neurobasal, to which B27, 2 mM L-Gln, and 10 units/ml penicillin and streptomycin had been added, was added in the same amount as the removed medium to the remaining medium. Likewise, a half amount of the medium was exchanged on day 21. On day 24, the cells were transferred on a petri dish, and thereafter, a half of the medium was exchanged every 3 or 4 days. On day 46, the obtained cells were immunostained using antibodies against CoupTF1 and Ctip2. […] From the aforementioned results, it was confirmed that nerve cells existing in the desired corticocerebral motor area can be induced even by utilizing the WNT inhibitor LGK-974 having a similar action to C59.
compound,measurement,setting,value
Cc1cc(-c2ccc(CC(=O)Nc3ccc(-c4cccnc4)cc3)cc2)ccn1 [C59],adhesion of spheres to an OFL coat dish,ES cells (Kh-1),did not adhere so much
same,efficiency of inducing CoupTF1-negative Ctip2-positive cells,iPS cells (836B1),not found a large difference
